# “And” between values parts separate entries of the source, which are not always exact repeats. Identical values can stand only once.
# System: HDQ-P1
# Assay: normalised viability (% of control), CellTiter-Blue; higher = more viable cells (about 100 = DMSO control)
# Conditions: 2.97 nM; incubation time: 72 h
# In short: (§1)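 Breast cancer cell lines in 20 µl suspension were seeded onto 384-well plates pre-loaded with compound dissolved in 5 µl medium, then incubated 72 h. CellTiter-Blue reagent (2.5 µl) was added for 2 h at 37 °C and fluorescence read at 560/590 nm. Each plate was normalised to vehicle (100) and a positive kill control (0), with Z'-factor quality control. The value is normalised viability at one listed concentration of the series.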
row,SMILES,normalised viability
1,CCN(CC)CCCC(C)Nc1c2ccc(Cl)cc2nc2ccc(OC)cc12 (stereo unspecified) [Mepacrine],109%

# Same assay, conditions: 3 nM; incubation time: 72 h
row,SMILES,normalised viability
1,O=C(/C=C/c1cccnc1)NCCCCC1CCN(C(=O)c2ccccc2)CC1 [FK-866],112%
2,CC[C@@H]1C(=O)N(C)c2cnc(Nc3ccc(C(=O)NC4CCN(C)CC4)cc3OC)nc2N1C1CCCC1 [BI 2536],77%
3,CCN(CC)CCCC(C)Nc1c2ccc(Cl)cc2nc2ccc(OC)cc12 (stereo unspecified) [Mepacrine],112%
4,Nc1nc2[nH]cc(CCc3ccc(C(=O)N[C@@H](CCC(=O)O)C(=O)O)cc3)c2c(=O)[nH]1 [Pemetrexed],110%
5,COc1cc([C@@H]2c3cc4c(cc3[C@@H](O[C@@H]3O[C@@H]5CO[C@@H](c6cccs6)O[C@H]5[C@H](O)[C@H]3O)[C@H]3COC(=O)[C@H]23)OCO4)cc(OC)c1O [Teniposide],113%
6,COc1cc2nccc(Oc3ccc(NC(=O)Nc4cc(C)on4)c(Cl)c3)c2cc1OC [Tivozanib],83.1%
7,O=C(Cc1ccc(-c2ccc(OCCN3CCOCC3)cc2)cn1)NCc1ccccc1 [KX2-391],112%
8,Nc1ccccc1NC(=O)c1ccc(CNC(=O)OCc2cccnc2)cc1 [Entinostat],103%
9,C=CC(=O)Nc1cc2c(Nc3ccc(F)c(Cl)c3)ncnc2cc1OCCCN1CCOCC1 [Canertinib],106%
10,CC[C@H](Nc1ncnc2[nH]cnc12)c1nc2cccc(F)c2c(=O)n1-c1ccccc1 [CAL-101],90%

# Same assay, conditions: 9.9 nM; incubation time: 72 h
row,SMILES,normalised viability
1,CCN(CC)CCCC(C)Nc1c2ccc(Cl)cc2nc2ccc(OC)cc12 (stereo unspecified) [Mepacrine],104%

# Same assay, conditions: 10 nM; incubation time: 72 h
row,SMILES,normalised viability
1,O=C(/C=C/c1cccnc1)NCCCCC1CCN(C(=O)c2ccccc2)CC1 [FK-866],98%
2,CC[C@@H]1C(=O)N(C)c2cnc(Nc3ccc(C(=O)NC4CCN(C)CC4)cc3OC)nc2N1C1CCCC1 [BI 2536],74.2%

# Same assay, conditions: 30 nM; incubation time: 72 h
row,SMILES,normalised viability
1,Nc1ncn([C@H]2C[C@H](O)[C@@H](CO)O2)c(=O)n1 [Decitabine],93% and 96.6%
2,CCN(CC)CCCC(C)Nc1c2ccc(Cl)cc2nc2ccc(OC)cc12 (stereo unspecified) [Mepacrine],113%
3,Nc1nc2[nH]cc(CCc3ccc(C(=O)N[C@@H](CCC(=O)O)C(=O)O)cc3)c2c(=O)[nH]1 [Pemetrexed],100%
4,COc1cc([C@@H]2c3cc4c(cc3[C@@H](O[C@@H]3O[C@@H]5CO[C@@H](c6cccs6)O[C@H]5[C@H](O)[C@H]3O)[C@H]3COC(=O)[C@H]23)OCO4)cc(OC)c1O [Teniposide],113%
5,COc1cc2nccc(Oc3ccc(NC(=O)Nc4cc(C)on4)c(Cl)c3)c2cc1OC [Tivozanib],85.8%
6,O=C(Cc1ccc(-c2ccc(OCCN3CCOCC3)cc2)cn1)NCc1ccccc1 [KX2-391],97.7%
7,Nc1ccccc1NC(=O)c1ccc(CNC(=O)OCc2cccnc2)cc1 [Entinostat],110%
8,C=CC(=O)Nc1cc2c(Nc3ccc(F)c(Cl)c3)ncnc2cc1OCCCN1CCOCC1 [Canertinib],90.6%
9,CC[C@H](Nc1ncnc2[nH]cnc12)c1nc2cccc(F)c2c(=O)n1-c1ccccc1 [CAL-101],101%

# Same assay, conditions: 100 nM; incubation time: 72 h
row,SMILES,normalised viability
1,Nc1ncn([C@H]2C[C@H](O)[C@@H](CO)O2)c(=O)n1 [Decitabine],96.1% and 92%
2,CCN(CC)CCCC(C)Nc1c2ccc(Cl)cc2nc2ccc(OC)cc12 (stereo unspecified) [Mepacrine],116%
3,Nc1nc2[nH]cc(CCc3ccc(C(=O)N[C@@H](CCC(=O)O)C(=O)O)cc3)c2c(=O)[nH]1 [Pemetrexed],101%
4,COc1cc([C@@H]2c3cc4c(cc3[C@@H](O[C@@H]3O[C@@H]5CO[C@@H](c6cccs6)O[C@H]5[C@H](O)[C@H]3O)[C@H]3COC(=O)[C@H]23)OCO4)cc(OC)c1O [Teniposide],104%
5,COc1cc2nccc(Oc3ccc(NC(=O)Nc4cc(C)on4)c(Cl)c3)c2cc1OC [Tivozanib],99.7%
6,O=C(Cc1ccc(-c2ccc(OCCN3CCOCC3)cc2)cn1)NCc1ccccc1 [KX2-391],43.2%
7,Nc1ccccc1NC(=O)c1ccc(CNC(=O)OCc2cccnc2)cc1 [Entinostat],102%
8,C=CC(=O)Nc1cc2c(Nc3ccc(F)c(Cl)c3)ncnc2cc1OCCCN1CCOCC1 [Canertinib],76%
9,CC[C@H](Nc1ncnc2[nH]cnc12)c1nc2cccc(F)c2c(=O)n1-c1ccccc1 [CAL-101],102%

# System: Hs578T
# Assay: as above
# Conditions: 0.25 nM; incubation time: 72 h
# In short: as §1
row,SMILES,normalised viability
1,CC(=O)Nc1cccc(-n2c(=O)n(C3CC3)c(=O)c3c(Nc4ccc(I)cc4F)n(C)c(=O)c(C)c32)c1,129%

# Same assay, conditions: 0.99 nM; incubation time: 72 h
row,SMILES,normalised viability
1,CCN(CC)CCCC(C)Nc1c2ccc(Cl)cc2nc2ccc(OC)cc12 (stereo unspecified) [Mepacrine],111%

# Same assay, conditions: 1 nM; incubation time: 72 h
row,SMILES,normalised viability
1,O=C(/C=C/c1cccnc1)NCCCCC1CCN(C(=O)c2ccccc2)CC1 [FK-866],99.9%
2,CC[C@@H]1C(=O)N(C)c2cnc(Nc3ccc(C(=O)NC4CCN(C)CC4)cc3OC)nc2N1C1CCCC1 [BI 2536],114%

# Same assay, conditions: 10 nM; incubation time: 72 h
row,SMILES,normalised viability
1,Nc1ncn([C@H]2C[C@H](O)[C@@H](CO)O2)c(=O)n1 [Decitabine],103% and 112%
2,CCN(CC)CCCC(C)Nc1c2ccc(Cl)cc2nc2ccc(OC)cc12 (stereo unspecified) [Mepacrine],107%
3,Nc1nc2[nH]cc(CCc3ccc(C(=O)N[C@@H](CCC(=O)O)C(=O)O)cc3)c2c(=O)[nH]1 [Pemetrexed],124%
4,COc1cc([C@@H]2c3cc4c(cc3[C@@H](O[C@@H]3O[C@@H]5CO[C@@H](c6cccs6)O[C@H]5[C@H](O)[C@H]3O)[C@H]3COC(=O)[C@H]23)OCO4)cc(OC)c1O [Teniposide],109%
5,COc1cc2nccc(Oc3ccc(NC(=O)Nc4cc(C)on4)c(Cl)c3)c2cc1OC [Tivozanib],109%
6,O=C(Cc1ccc(-c2ccc(OCCN3CCOCC3)cc2)cn1)NCc1ccccc1 [KX2-391],94.4%
7,Nc1ccccc1NC(=O)c1ccc(CNC(=O)OCc2cccnc2)cc1 [Entinostat],100%
8,C=CC(=O)Nc1cc2c(Nc3ccc(F)c(Cl)c3)ncnc2cc1OCCCN1CCOCC1 [Canertinib],96%
9,CC[C@H](Nc1ncnc2[nH]cnc12)c1nc2cccc(F)c2c(=O)n1-c1ccccc1 [CAL-101],116%

# Same assay, conditions: 25 nM; incubation time: 72 h
row,SMILES,normalised viability
1,CC(=O)Nc1cccc(-n2c(=O)n(C3CC3)c(=O)c3c(Nc4ccc(I)cc4F)n(C)c(=O)c(C)c32)c1,84.8%

# Same assay, conditions: 99 nM; incubation time: 72 h
row,SMILES,normalised viability
1,CCN(CC)CCCC(C)Nc1c2ccc(Cl)cc2nc2ccc(OC)cc12 (stereo unspecified) [Mepacrine],118%

# Same assay, conditions: 100 nM; incubation time: 72 h
row,SMILES,normalised viability
1,O=C(/C=C/c1cccnc1)NCCCCC1CCN(C(=O)c2ccccc2)CC1 [FK-866],15%
2,CC[C@@H]1C(=O)N(C)c2cnc(Nc3ccc(C(=O)NC4CCN(C)CC4)cc3OC)nc2N1C1CCCC1 [BI 2536],29.9%

# Same assay, conditions: 250 nM; incubation time: 72 h
row,SMILES,normalised viability
1,CC(=O)Nc1cccc(-n2c(=O)n(C3CC3)c(=O)c3c(Nc4ccc(I)cc4F)n(C)c(=O)c(C)c32)c1,83%

# Same assay, conditions: 990 nM; incubation time: 72 h
row,SMILES,normalised viability
1,CCN(CC)CCCC(C)Nc1c2ccc(Cl)cc2nc2ccc(OC)cc12 (stereo unspecified) [Mepacrine],38.5%
